Reference: patent publication US8193350B2, “Fluorescent compound and labeling agent comprising the same” (Keio University, priority 2006, dated 2012)
Where “and” joins values, the source holds several entries; their conditions need not be identical. Identical values can stand only once. Like-named read-outs stand apart in the source and are kept apart here. Marks after values point to notes of the source that are not given here.

Tests used:
[1] = Optical properties: absorption and fluorescence emission spectra; type: physicochemical
[2] = cited from earlier work
[3] = Light fastness test: change of absorbance with time under the light of daily life; type: physicochemical; conditions: acetonitrile
Experimental: An experiment testing the light fastness of fluorescent compound 8 and Cy7 (trade name, 1-[3-(4-monomethoxytrityloxy)propyl]-1′-[3-[(2-cyanoethyl)-(N,N-diisopropyl)phosphoramidityl]propyl]-3,3,3′,3′-tetramethylindotricarbocyanine chloride) was carried out.
Fluorescent compound 8 and Cy7 (trade name) were respectively dissolved in acetonitrile to a concentration attaining an absorbance of 0.1. The solutions were left to stand under the same conditions (more specifically, under the light of daily life without light shading, and the absorbance was measured every day (or every other day). The change with time of the measured absorbance was graphed taking the relative absorbance (taking the absorbance before leaving to stand as 100%) along the ordinate and taking the days along the abscissa.

[4] = CHCl3, reference N,N′-bis(1-hexylheptyl)-perylene dye (Φ=1.00 in CH2Cl2)
[5] = CHCl3, reference 3,3′-diethyl-dithiazylcarbocyanine, excitation 650 nm, containing error of 10%
[6] = MeOH, reference 3,3′-diethyl-dithiazylcarbocyanine, excitation 650 nm, containing error of 10%

| Molecule | fwhm (full width at half maximum height) ([1]; MeOH) [nm] | λabs (maximum absorption wavelength) ([1]; MeOH) [nm] | λflu (maximum fluorescence wavelength) ([1]; MeOH) [nm] | fwhm (full width at half maximum height) ([1]; CHCl3) [nm] | λabs (maximum absorption wavelength) ([1]; CHCl3) | λflu (maximum fluorescence wavelength) ([1]; CHCl3) [nm] | shift of maximum absorption wavelength to longer wavelength compared with boron dipyrromethene (R1=R3=R5=R7=Me) [1] | shift of maximum absorption wavelength to longer wavelength compared with fluorescent compound 2 [1] | other results |
| --- | --- | --- | --- | --- | --- | --- | --- | --- | --- |
| 1-[3-(4-monomethoxytrityloxy)propyl]-1′-[3-[(2-cyanoethyl)-(N,N-diisopropyl)phosphoramidityl]propyl]-3,3,3′,3′-tetramethylindodicarbocyanine chloride [Cy5, reference compound] | 29 | 648 | 670 | – | – | – | – | – | ε (molar extinction coefficient) ([1]; MeOH): 250,000 M^−1cm^−1; Φ (fluorescence quantum yield) ([2]; the value in PBS obtained from Amersham Biosciences): 0.27^a |
| CCN1C(=CC=Cc2sc3ccccc3[n+]2CC)Sc2ccccc21 [3,3′-diethyl-dithiazylcarbocyanine] | – | – | – | – | – | – | – | – | Φ of reference dye ([2]; in MeOH): 0.33 |
| COc1ccc(C(OCCC[N+]2=C(C=CC=CC=CC=C3N(CCCOP(OCCC#N)N(C(C)C)C(C)C)c4ccccc4C3(C)C)C(C)(C)c3ccccc32)(c2ccccc2)c2ccccc2)cc1.[Cl-] (centres unmarked) [Cy7, 1-[3-(4-monomethoxytrityloxy)propyl]-1′-[3-[(2-cyanoethyl)-(N,N-diisopropyl)phosphoramidityl]propyl]-3,3,3′,3′-tetramethylindotricarbocyanine chloride] | – | – | – | – | – | – | – | – | light fastness (in words) ([3]; light of daily life, 1 week): very poor; relative absorbance retained (absorbance before leaving to stand as 100%) ([3]; under the light of daily life without light shading, after 1 week): ≤ 10% |
| CCCCC(CCCC)Oc1cc(C)c(C2=C3C=c4sc(C)cc4=[N+]3[B-](F)(F)n3c2cc2sc(C)cc23)c(C)c1 [Fluorescent Compound 3] | – | – | – | 20 | 586 nm | 596 | – | – | ε (molar extinction coefficient) ([1]; CHCl3): 170,000 M^−1cm^−1; Φ (fluorescence quantum yield) [1, 4]: 0.39 |
| CCCCC(CCCC)Oc1cc(C)c(C2=C3C=c4oc(-c5ccc(OC)cc5)cc4=[N+]3[B-](F)(F)n3c2cc2oc(-c4ccc(OC)cc4)cc23)c(C)c1 [Fluorescent Compound 5] | 29 | 664 | 679 | 28 | 673 nm | 685 | about 170 nm | about 90 nm | ε (molar extinction coefficient) ([1]; CHCl3): 190,000 M^−1cm^−1; Φ (fluorescence quantum yield) [1, 4]: 0.68; ε (molar extinction coefficient) ([1]; MeOH): 200,000 M^−1cm^−1; Φ (fluorescence quantum yield) ([1]; MeOH, reference N,N′-bis(1-hexylheptyl)-perylene dye (Φ=1.00 in CH2Cl2)): 0.63; fwhm (full width at half maximum height) ([1]; THF): 27 nm; ε (molar extinction coefficient) ([1]; THF): 190,000 M^−1cm^−1; λabs (maximum absorption wavelength) ([1]; THF): 669 nm; λflu (maximum fluorescence wavelength) ([1]; THF): 680 nm; Φ (fluorescence quantum yield) ([1]; THF, reference N,N′-bis(1-hexylheptyl)-perylene dye (Φ=1.00 in CH2Cl2)): 0.67; fwhm, summary in text of the values in Table 1 ([1]; all solvents of Table 1): about 30 nm |
| COc1ccc(-c2cc3c(o2)=CC2=Cc4cc5oc(-c6ccc(OC)cc6)cc5n4[B-](F)(F)[N+]=32)cc1 [Fluorescent Compound 6] | 26 | 659 | 672 | 24 | 683 nm and 673 nm | 683 | about 170 nm | about 90 nm | ε (molar extinction coefficient) ([1]; CHCl3, containing error of 10% (Table 4)): 240,000 M^−1cm^−1; Φ (fluorescence quantum yield) [1, 5]: 0.69; Φ (fluorescence quantum yield) [1, 6]: 0.58; fwhm (full width at half maximum height) ([1]; THF): 24 nm; λabs (maximum absorption wavelength) ([1]; THF): 665 nm; λflu (maximum fluorescence wavelength) ([1]; THF): 674 nm; Φ (fluorescence quantum yield) ([1]; THF, reference 3,3′-diethyl-dithiazylcarbocyanine, excitation 650 nm, containing error of 10%): 0.63 |
| COc1ccc(OC)c(-c2cc3c(o2)=CC2=Cc4cc5oc(-c6cc(OC)ccc6OC)cc5n4[B-](F)(F)[N+]=32)c1 [Fluorescent Compound 7] | 28 | 662 | 674 | 24 | 688 nm and 678 nm | 688 | about 170 nm | about 90 nm | Φ (fluorescence quantum yield) [1, 5]: 0.51; Φ (fluorescence quantum yield) [1, 6]: 0.54 |
